These results are taken from ChEMBL document CHEMBL2321769, “Regioselective synthesis of 5- and 6-methoxybenzimidazole-1,3,5-triazines as inhibitors of phosphoinositide 3-kinase” (Bioorg Med Chem Lett, 2013).

A word on the IC50: it is the concentration at which inhibition is half-maximal. A low value points to higher potency.

The target in assay [1] is Phosphatidylinositol 4,5-bisphosphate 3-kinase catalytic subunit alpha isoform (Homo sapiens, UniProt P42336). In words: Inhibition of PI3Kalpha (unknown origin) expressed in SF21 cells using phosphatidylinositol as substrate after 60 mins by Kinase-Glo assay. In general terms: Kinase-Glo measures the ATP left after a reaction by luminescence.
Phosphatidylinositol 4,5-bisphosphate 3-kinase catalytic subunit alpha isoform, sequence (P42336 whole entry, canonical isoform): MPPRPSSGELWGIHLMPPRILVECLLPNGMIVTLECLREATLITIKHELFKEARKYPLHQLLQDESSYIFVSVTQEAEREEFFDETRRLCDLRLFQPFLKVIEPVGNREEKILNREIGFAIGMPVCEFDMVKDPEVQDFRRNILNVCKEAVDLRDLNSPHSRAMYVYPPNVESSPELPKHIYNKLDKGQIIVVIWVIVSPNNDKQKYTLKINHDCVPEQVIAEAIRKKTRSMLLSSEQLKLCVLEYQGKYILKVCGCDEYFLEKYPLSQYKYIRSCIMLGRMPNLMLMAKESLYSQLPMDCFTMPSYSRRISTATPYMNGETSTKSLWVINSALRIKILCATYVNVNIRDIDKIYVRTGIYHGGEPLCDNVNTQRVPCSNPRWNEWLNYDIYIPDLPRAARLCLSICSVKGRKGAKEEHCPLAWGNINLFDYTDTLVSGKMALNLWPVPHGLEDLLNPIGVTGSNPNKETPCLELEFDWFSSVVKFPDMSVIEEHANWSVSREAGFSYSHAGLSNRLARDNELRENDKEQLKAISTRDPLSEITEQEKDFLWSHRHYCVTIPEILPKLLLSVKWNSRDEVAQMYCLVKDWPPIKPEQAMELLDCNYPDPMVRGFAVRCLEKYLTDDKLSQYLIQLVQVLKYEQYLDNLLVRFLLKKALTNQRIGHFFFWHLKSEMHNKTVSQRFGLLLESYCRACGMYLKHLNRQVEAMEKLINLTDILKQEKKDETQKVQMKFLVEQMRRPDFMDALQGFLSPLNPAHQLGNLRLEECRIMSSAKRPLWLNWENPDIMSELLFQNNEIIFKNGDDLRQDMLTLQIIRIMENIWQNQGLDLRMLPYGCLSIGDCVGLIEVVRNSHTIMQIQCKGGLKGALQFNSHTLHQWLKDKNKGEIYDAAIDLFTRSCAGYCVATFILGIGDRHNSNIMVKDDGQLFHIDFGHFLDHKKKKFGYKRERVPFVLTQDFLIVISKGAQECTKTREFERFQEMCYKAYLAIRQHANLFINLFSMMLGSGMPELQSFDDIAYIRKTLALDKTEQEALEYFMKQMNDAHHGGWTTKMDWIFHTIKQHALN
Assay [2] has as its target T1, Phosphatidylinositol 4,5-bisphosphate 3-kinase catalytic subunit delta isoform (Homo sapiens, UniProt O00329).
T1 sequence (O00329 whole entry): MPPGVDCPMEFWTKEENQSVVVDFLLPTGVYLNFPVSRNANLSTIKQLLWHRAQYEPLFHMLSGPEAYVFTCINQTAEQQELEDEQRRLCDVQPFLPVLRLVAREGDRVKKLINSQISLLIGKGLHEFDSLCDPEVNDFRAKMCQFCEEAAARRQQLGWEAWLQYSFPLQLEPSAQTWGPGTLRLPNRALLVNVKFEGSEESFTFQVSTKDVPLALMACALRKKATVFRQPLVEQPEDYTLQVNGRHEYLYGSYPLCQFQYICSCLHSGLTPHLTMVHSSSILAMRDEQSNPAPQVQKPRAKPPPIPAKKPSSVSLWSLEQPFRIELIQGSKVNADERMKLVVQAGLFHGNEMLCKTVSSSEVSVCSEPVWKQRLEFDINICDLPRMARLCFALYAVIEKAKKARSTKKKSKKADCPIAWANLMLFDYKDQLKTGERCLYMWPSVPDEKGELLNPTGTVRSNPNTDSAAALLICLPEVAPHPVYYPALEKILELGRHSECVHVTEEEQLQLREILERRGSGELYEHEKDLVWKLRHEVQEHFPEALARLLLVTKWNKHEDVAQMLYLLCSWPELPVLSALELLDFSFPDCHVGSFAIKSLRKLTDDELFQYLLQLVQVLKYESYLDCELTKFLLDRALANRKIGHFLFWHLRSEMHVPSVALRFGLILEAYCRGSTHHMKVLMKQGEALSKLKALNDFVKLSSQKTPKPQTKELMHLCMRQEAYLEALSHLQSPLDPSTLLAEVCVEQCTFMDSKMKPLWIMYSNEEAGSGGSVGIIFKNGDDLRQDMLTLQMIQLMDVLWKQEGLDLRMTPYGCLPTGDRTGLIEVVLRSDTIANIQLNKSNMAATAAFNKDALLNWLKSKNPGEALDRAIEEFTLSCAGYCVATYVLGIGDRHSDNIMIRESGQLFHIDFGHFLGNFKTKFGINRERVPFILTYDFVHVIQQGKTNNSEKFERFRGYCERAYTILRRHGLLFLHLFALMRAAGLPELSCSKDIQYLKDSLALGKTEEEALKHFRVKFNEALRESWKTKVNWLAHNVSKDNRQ
In words: Inhibition of PI3Kdelta (unknown origin) expressed in SF21 cells using phosphatidylinositol as substrate after 60 mins by Kinase-Glo assay.

In assay [3] the target is Phosphatidylinositol 4,5-bisphosphate 3-kinase catalytic subunit gamma isoform (Homo sapiens, UniProt P48736). The experiment in a line: Inhibition of PI3Kgamma (unknown origin) expressed in SF21 cells using phosphatidylinositol as substrate after 60 mins by Kinase-Glo assay.
Phosphatidylinositol 4,5-bisphosphate 3-kinase catalytic subunit gamma isoform, sequence (P48736 whole entry, canonical isoform): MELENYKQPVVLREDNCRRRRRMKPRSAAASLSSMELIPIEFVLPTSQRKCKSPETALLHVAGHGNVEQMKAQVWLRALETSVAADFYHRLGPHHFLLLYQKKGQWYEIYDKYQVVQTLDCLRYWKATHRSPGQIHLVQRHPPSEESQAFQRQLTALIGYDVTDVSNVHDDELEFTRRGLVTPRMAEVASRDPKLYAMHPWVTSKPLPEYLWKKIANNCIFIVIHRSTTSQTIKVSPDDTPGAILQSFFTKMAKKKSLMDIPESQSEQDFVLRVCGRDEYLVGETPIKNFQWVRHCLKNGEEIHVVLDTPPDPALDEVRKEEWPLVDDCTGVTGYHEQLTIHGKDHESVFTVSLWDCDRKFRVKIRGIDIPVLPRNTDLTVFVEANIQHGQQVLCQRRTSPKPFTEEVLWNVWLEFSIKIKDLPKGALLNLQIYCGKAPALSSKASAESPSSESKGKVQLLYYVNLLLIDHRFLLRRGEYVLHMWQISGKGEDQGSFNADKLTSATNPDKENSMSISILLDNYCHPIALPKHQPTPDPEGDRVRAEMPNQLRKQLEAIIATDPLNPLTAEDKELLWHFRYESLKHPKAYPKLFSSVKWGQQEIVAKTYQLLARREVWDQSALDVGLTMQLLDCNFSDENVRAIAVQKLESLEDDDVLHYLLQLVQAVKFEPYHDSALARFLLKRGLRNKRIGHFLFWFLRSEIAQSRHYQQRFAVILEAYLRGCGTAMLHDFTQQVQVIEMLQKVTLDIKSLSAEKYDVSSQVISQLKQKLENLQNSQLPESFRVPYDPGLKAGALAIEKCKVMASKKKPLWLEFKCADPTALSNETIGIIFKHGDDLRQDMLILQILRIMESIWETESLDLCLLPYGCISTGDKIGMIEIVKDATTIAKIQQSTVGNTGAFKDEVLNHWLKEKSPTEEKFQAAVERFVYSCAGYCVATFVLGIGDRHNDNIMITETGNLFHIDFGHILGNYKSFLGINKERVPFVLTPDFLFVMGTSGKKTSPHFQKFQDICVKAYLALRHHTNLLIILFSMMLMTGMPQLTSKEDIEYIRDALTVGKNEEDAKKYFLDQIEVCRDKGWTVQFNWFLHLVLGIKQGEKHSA
For assay [4], the target named is Phosphatidylinositol 4,5-bisphosphate 3-kinase catalytic subunit beta isoform (Homo sapiens, UniProt P42338). In words: Inhibition of PI3Kbeta (unknown origin) expressed in SF21 cells using phosphatidylinositol as substrate after 60 mins by Kinase-Glo assay.
Phosphatidylinositol 4,5-bisphosphate 3-kinase catalytic subunit beta isoform, sequence (P42338 whole entry, canonical isoform): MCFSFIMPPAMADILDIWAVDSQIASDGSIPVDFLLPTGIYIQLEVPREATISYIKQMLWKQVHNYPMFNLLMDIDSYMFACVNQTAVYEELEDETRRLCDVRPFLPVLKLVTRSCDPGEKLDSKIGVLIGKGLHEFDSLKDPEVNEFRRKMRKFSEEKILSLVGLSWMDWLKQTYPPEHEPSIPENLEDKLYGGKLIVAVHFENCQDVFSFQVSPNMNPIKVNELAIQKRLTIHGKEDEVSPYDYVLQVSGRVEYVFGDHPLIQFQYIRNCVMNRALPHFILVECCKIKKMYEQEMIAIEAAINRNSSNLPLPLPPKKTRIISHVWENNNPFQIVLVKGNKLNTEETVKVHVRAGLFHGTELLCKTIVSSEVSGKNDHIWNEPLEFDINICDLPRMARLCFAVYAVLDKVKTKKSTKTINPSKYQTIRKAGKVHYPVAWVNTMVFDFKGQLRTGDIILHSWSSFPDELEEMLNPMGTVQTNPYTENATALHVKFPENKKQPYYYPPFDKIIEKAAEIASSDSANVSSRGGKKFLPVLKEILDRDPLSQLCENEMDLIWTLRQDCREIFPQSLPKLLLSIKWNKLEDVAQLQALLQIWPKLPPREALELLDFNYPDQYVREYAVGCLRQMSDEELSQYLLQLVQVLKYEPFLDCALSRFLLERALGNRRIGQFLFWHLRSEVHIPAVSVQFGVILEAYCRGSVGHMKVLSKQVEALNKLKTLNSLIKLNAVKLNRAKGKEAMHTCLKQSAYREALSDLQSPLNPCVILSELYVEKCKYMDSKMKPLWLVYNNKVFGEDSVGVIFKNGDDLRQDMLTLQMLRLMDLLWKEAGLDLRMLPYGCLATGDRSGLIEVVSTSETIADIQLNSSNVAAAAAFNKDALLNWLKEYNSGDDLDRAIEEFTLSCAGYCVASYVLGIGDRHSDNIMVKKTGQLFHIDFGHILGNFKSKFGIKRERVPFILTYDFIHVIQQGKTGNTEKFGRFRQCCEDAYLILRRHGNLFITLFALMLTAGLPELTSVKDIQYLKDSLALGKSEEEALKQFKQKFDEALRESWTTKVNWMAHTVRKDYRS

For the molecule `Cc1nc2ccccc2n1-c1nc(N2CCOCC2)nc(N2CCOCC2)n1`, the IC50 in assay [1] turned out to be 290 nM; in assay [2], 187 nM; in assay [3], 1860 nM; in assay [4], 523 nM.
Regarding `COc1ccc2c(c1)nc(C(F)F)n2-c1nc(N2CCOCC2)nc(N2CCOCC2)n1`, the IC50 in assay [1] is > 5000 nM; in assay [2], > 1000 nM; in assay [3], > 10000 nM; in assay [4], > 10000 nM.
Regarding `COc1ccc2nc(C(F)F)n(-c3nc(N4CCOCC4)nc(N4CCOCC4)n3)c2c1`, the IC50 in assay [1] was 375 nM; in assay [2], 110 nM; in assay [3] it was > 10000 nM; in assay [4], 214 nM.
In the case of `COc1ccc2c(c1)nc(C)n2-c1nc(N2CCOCC2)nc(N2CCOCC2)n1`, the IC50 in assay [1] was 9200 nM; in assay [2], 2770 nM; in assay [3], > 10000 nM; in assay [4], > 10000 nM.
Turning to `COc1ccc2nc(C)n(-c3nc(N4CCOCC4)nc(N4CCOCC4)n3)c2c1`, the IC50 in assay [1] was 823 nM; in assay [2], 458 nM; in assay [3] it was > 10000 nM; in assay [4] it was 1790 nM.
The corresponding values for `CC(C)c1nc2ccccc2n1-c1nc(N2CCOCC2)nc(N2CCOCC2)n1` are 431 nM, 128 nM, 2530 nM and 419 nM.
The matching figures for `COc1ccc2c(c1)nc(C(C)C)n2-c1nc(N2CCOCC2)nc(N2CCOCC2)n1`: > 10000 nM, 1120 nM, > 10000 nM and > 10000 nM.
The matching figures for `COc1ccc2nc(C(C)C)n(-c3nc(N4CCOCC4)nc(N4CCOCC4)n3)c2c1`: 1050 nM, 423 nM, > 10000 nM and 726 nM.
